The text below walks through data of article PMC8694024 (RSC Advances, 2021).

Where two headings read alike, the source gives them in different places.

Experiment [1] deals with rat intestinal maltase. Briefly: Inhibitory effects on rat intestinal α-glucosidases: maltase. Type of experiment: biochemical. The note with it: read-out: Apparent IC50, Maltase; rat intestinal disaccharidases.
In experiment [2] the target is T1, rat intestinal isomaltase (Rattus norvegicus, UniProt P23739). Briefly: Inhibitory effects on rat intestinal α-glucosidases: isomaltase. Type of experiment: biochemical.
T1 sequence (P23739 whole entry): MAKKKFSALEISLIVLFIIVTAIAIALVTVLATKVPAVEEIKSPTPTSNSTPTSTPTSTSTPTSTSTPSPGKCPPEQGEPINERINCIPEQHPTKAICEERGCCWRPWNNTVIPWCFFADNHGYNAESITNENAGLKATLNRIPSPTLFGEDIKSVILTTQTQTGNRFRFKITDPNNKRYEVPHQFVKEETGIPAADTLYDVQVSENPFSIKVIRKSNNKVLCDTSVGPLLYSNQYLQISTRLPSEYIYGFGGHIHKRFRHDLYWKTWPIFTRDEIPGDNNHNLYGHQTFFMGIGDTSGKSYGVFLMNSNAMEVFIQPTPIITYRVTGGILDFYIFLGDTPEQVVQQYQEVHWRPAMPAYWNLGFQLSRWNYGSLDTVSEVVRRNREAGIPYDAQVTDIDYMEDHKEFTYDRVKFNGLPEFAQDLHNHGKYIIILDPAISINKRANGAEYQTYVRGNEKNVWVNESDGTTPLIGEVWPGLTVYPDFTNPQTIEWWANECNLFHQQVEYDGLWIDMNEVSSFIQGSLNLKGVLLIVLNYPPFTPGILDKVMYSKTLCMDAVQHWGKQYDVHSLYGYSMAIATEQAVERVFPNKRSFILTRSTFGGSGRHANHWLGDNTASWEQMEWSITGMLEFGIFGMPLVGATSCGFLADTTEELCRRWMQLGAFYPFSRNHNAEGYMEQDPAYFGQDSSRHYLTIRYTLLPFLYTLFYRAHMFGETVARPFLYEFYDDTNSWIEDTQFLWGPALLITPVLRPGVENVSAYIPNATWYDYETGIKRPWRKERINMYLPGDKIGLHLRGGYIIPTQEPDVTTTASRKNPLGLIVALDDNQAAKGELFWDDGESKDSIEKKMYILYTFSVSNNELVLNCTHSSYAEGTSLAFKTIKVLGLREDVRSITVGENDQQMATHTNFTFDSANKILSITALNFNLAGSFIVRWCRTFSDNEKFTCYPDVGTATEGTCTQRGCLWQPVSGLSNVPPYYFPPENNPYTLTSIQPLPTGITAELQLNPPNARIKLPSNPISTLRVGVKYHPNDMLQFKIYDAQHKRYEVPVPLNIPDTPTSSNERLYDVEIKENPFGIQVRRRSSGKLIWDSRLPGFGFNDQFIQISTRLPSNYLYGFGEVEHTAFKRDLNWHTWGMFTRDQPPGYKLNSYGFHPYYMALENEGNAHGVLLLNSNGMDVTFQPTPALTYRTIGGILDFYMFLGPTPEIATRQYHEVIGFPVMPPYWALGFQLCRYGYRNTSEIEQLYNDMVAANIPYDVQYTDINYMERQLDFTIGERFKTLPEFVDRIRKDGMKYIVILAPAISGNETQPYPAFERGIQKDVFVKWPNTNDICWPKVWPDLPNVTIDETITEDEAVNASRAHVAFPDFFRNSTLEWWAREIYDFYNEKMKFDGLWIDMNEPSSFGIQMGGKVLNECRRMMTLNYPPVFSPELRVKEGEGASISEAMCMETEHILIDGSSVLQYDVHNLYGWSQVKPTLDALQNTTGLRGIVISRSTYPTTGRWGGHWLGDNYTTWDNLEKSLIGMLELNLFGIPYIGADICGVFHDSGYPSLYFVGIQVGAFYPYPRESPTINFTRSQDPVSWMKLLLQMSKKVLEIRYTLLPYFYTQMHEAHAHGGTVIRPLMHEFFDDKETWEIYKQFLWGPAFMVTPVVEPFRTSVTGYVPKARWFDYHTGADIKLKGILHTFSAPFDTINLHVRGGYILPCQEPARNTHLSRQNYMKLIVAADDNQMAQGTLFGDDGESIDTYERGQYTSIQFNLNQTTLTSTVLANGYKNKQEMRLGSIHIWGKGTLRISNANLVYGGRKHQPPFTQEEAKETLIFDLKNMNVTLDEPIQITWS
Experiment [3] concerns the target T2, β-glucosidase from Aspergillus niger (Aspergillus niger, UniProt A2RAL4).
T2 sequence (A2RAL4 20-860): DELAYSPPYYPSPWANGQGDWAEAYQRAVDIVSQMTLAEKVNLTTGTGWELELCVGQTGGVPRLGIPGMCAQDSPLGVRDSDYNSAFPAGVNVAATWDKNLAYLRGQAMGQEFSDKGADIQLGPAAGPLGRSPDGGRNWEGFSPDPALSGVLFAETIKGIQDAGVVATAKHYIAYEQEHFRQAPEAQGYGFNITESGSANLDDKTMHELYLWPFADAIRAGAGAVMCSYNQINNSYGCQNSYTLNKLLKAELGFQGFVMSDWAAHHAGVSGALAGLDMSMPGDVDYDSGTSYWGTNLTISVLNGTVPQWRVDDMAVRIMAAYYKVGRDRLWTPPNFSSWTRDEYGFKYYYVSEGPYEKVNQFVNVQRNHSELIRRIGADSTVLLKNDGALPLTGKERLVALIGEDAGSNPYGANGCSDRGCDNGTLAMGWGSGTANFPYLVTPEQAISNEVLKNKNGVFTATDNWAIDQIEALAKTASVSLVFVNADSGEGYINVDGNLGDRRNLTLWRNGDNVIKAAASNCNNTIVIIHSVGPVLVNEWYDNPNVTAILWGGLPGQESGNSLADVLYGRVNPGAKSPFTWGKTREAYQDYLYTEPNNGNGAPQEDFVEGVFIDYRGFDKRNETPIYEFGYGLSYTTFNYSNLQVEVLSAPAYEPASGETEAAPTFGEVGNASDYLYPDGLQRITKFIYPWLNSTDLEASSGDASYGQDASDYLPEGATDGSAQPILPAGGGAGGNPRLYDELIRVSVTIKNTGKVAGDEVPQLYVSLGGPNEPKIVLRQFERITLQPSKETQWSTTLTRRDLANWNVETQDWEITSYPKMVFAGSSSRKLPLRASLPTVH
As to the kind of experiment: Inhibition of β-glucosidase from Aspergillus niger, β-p-NPG substrate. Type of experiment: biochemical. The note with it: read-out: Apparent IC50, A. niger β-glucosidase; pH 4.6, β-p-NPG substrate.

For another experiment, the target named is rat intestinal sucrase (Rattus norvegicus, UniProt P23739). As to the kind of experiment: Inhibitory effects on rat intestinal α-glucosidases: sucrase. Type of experiment: biochemical.
rat intestinal sucrase, sequence (P23739 whole entry): as the sequence (P23739 whole entry) above
For experiment [4], the system named is intestinal α-glucosidases. The note with it: cited from earlier work.
In experiment [5] the target is rat intestinal maltase. The note with it: read-out: Apparent IC50, Maltase; rat intestinal disaccharidases; cited from earlier work.
Experiment [6] has as its target T1, rat intestinal isomaltase. The note with it: read-out: Apparent IC50, Isomaltase; rat intestinal disaccharidases; cited from earlier work.
The target in experiment [7] is recombinant human α-glucosidase GAA (Homo sapiens, UniProt P10253). As to the kind of experiment: Inhibition of recombinant human α-glucosidase GAA. Type of experiment: biochemical.
The mark [8] stands for this setting: read-out: Apparent IC50, Isomaltase, rat intestinal disaccharidases.
[9] abbreviates: read-out: Apparent IC50, Sucrase, rat intestinal disaccharidases.

As usually defined, the IC50 is the midpoint of a concentration-inhibition curve. In the case of 2', 3'-epi-Salacinol [Compound 12], the 50% inhibitory concentration (IC50) on rat intestinal maltase [1] is greater than 100 µM; in experiment [2] (setting [8]) it was greater than 100 µM; in experiment [3], greater than 1000 µM; on rat intestinal sucrase (setting [9]), greater than 100 µM.

For the molecule 2'-epi-Salacinol [Compound 10], the 50% inhibitory concentration (IC50) was greater than 100 µM on rat intestinal maltase [1], greater than 100 µM in experiment [2] (setting [8]), greater than 1000 µM in experiment [3] and greater than 100 µM on rat intestinal sucrase (setting [9]).

As to `O=S(=O)([O-])O[C@@H](CO)[C@H](O)C[S@+]1C[C@@H](O)[C@H](O)[C@H]1CO` [Compound 1, Salacinol], the “type of inhibition (Lineweaver–Burk plots)” value in experiment [4] was “competitive type of inhibition”. For the same molecule, the IC50 (at rat intestinal maltase [5]; in experiment [6]) was 5.2 µM each time.

As to 3'-epi-Salacinol [Compound 8], the IC50 at rat intestinal maltase [1] is greater than 100 µM; in experiment [2] (setting [8]), 6.4 µM; in experiment [3] it was greater than 1000 µM; at rat intestinal sucrase (setting [9]), 19 µM.

Usually Ki stands for a dissociation constant, usually derived from enzyme kinetics or from competition with a known ligand. `[O-][C@@H](CO)[C@H](O)C[S@+]1C[C@@H](O)[C@H](O)[C@H]1CO` [Compound 2, neosalacinol, reference compound]: the inhibitory constant (Ki) in experiment [7] is 3.6 ± 0.3 µM. Moreover, the IC50 on rat intestinal maltase [1] stood at 25 µM; in experiment [2] it was 0.45 µM; against rat intestinal sucrase, 3.6 µM.

In the case of `OCC(CO)N[C@H]1C[C@](O)(CO)[C@@H](O)[C@H](O)[C@H]1O` [Voglibose], the Ki in experiment [7] was determined as 7.6 ± 0.8 µM.

On to 2'-epi-Neosalacinol [Compound 11], for which the IC50 is greater than 100 µM at rat intestinal maltase [1], greater than 100 µM in experiment [2] (setting [8]) and greater than 1000 µM in experiment [3].

2', 3'-epi-Neosalacinol [Compound 13]: the IC50 at rat intestinal maltase [1] is greater than 100 µM; in experiment [2] (setting [8]), 34 µM; in experiment [3], greater than 1000 µM.

As for 3'-epi-Neosalacinol [Compound 9], the half-maximal inhibitory concentration (IC50) was 4.3 µM at rat intestinal maltase [1], 0.58 µM in experiment [2] (setting [8]), greater than 1000 µM in experiment [3] and 0.69 µM on rat intestinal sucrase (setting [9]).
